The values below come from patent US7507581B2, “Inhibition of pancreatic islet aggregation” (Synthecon, Inc., priority 2005, dated 2009).

“Also recorded” adds a separate entry of the source.

What all share (format): cell-based
The test system of test [1] is human pancreatic islets. The test is described as follows: Aggregation of high-density pancreatic islets in culture (RCCS bioreactor or petri dish). On the procedure: It is hypothesized that synthetic peptides containing the IKVAV peptide sequence (SEQ ID NO. 2) can inhibit the aggregation of islets cultures in the RCCS bioreactor. Experiments were performed to compare the aggregation of about 200-300 islets/ml cultured in the presence and absence of each peptide to be tested. Initial experiments added the peptide to the culture media in a small (10 ml) RCCS bioreactor vessel. It was realized that providing a large volume of culture media with sufficient concentrations of the PA22-2 peptide or another IKVAV-containing peptide component of laminin would be prohibitively expensive. Thus, the experimental protocol was altered as described below.
(§1) In each sample, the islets were allowed to settle at 1×g in a sterile centrifuge tube. Once the islets had settled, the supernatant was removed and replaced with 2 ml of media. Control samples of islets (Samples 2 and 4) were placed in the control media (i.e., CMRL-1066 media containing 10% bovine serum, 1% penicillin/streptomycin/amphotericin B, and 2 mM glutamine) and experimental samples of islets (Samples 3 and 5) were incubated with the control media to which 50 μg/ml IKVAV-containing peptide such as the PA22-2 (SEQ ID NO. 1) peptide had been added. The IKVAV-containing peptides are hereinafter referred to as laminin A chain peptide. […]
(§2) Samples 2 and 3 were transferred to standard culture dishes (petri dishes) at a cell density of approximately 200 islets/ml. […] After the Samples 2-5 had been cultured for 7 days, the islets were removed from the culture dish or RCCS bioreactor vessel and assessed for aggregation, apoptosis and ATP levels.
An aliquot of islets from each sample was fixed by washing the islets two times in phosphate buffered saline (PBS) and then transferring the washed samples to a 4% paraformaldehyde solution for 2 hours to fix the islets. […] The islets were analyzed for their, degree of aggregation by digitizing ten microscopic fields and measuring the cross sectional areas of the islets within each field with the image processing program NIH Image. […]

In test [2] the test system is caspase 3 activity in cultured human pancreatic islets. Briefly: Caspase 3 activity (apoptosis) in cultured human pancreatic islets. Here is the method: (§3) In each sample, the islets were allowed to settle at 1×g in a sterile centrifuge tube. Once the islets had settled, the supernatant was removed and replaced with 2 ml of media. Control samples of islets (Samples 2 and 4) were placed in the control media (i.e., CMRL-1066 media containing 10% bovine serum, 1% penicillin/streptomycin/amphotericin B, and 2 mM glutamine) and experimental samples of islets (Samples 3 and 5) were incubated with the control media to which 50 μg/ml IKVAV-containing peptide such as the PA22-2 (SEQ ID NO. 1) peptide had been added. The IKVAV-containing peptides are hereinafter referred to as laminin A chain peptide.
(§4) All four samples were gently mixed and placed in a humidified incubator for 3 hours at 37° C. At half hour intervals, the tubes containing the samples were gently inverted to prevent aggregation of the islet pellet.
Samples 2 and 3 were transferred to standard culture dishes (petri dishes) at a cell density of approximately 200 islets/ml. Samples 4 and 5 were transferred to 35 ml perfused RCCS bioreactor vessels at a cell density of approximately 200 islets/ml. […] After the Samples 2-5 had been cultured for 7 days, the islets were removed from the culture dish or RCCS bioreactor vessel and assessed for aggregation, apoptosis and ATP levels. […]
Fifty microliters of the lysed cell supernatant from each sample was transferred into a microplate well. […] The free rhodamine was measured by fluorescence (excitation/emission-496/520 nm). The fluorescence was quantitated using arbitrary fluorescence units derived by normalizing the rhodamine fluorescence to the quantity of DNA in the islet sample, which is directly proportional to cell number.
Experiments were performed to compare islet caspase 3 activity in islets cultured in conventional petri dishes (labeled in FIG. 3 as Dish) with islets preincubated with the laminin A chain peptide PA22-2 and cultured in an RCCS bioreactor (labeled in FIG. 3 as RCCS+ laminin). […] The data from four experiments was analyzed by a one-way ANOVA. Differences between the groups were determined by the Student-Newman Keuls test.

In test [3] the test system is human pancreatic islets. The test is described as follows: ATP levels in cultured human pancreatic islets (luciferin/luciferase luminescence). Here is the method: as §1, §2
Islet ATP levels were measured by luciferin/luciferase luminescence. […] The cells were pelleted by centrifugation and 10 μl of the lysed cell supernatant was placed in a luminescence multiwell plate with 90 μl of reaction solution (25 mM Tricine pH 7.8, 5 mM MgSO4, 0.1 mM EDTA, 0.1 mM sodium azide with 0.5 mM lucifirin, 1 mM DTT and 12.5 μg of firefly luciferase). […]
The data from four experiments was analyzed by a one-way ANOVA. […]

Test [4] concerns human pancreatic islets. Briefly: H & E stained thin sections of cultured human islets. As to conditions: preincubated with peptide, 7 days in RCCS bioreactor; compared with petri dish control. On the procedure: as §3, §4
Samples 2 and 3 were transferred to standard culture dishes (petri dishes) at a cell density of approximately 200 islets/ml. Samples 4 and 5 were transferred to 35 ml perfused RCCS bioreactor vessels at a cell density of approximately 200 islets/ml. All of the samples (Samples 2-5) were then cultured for 7 days. After the Samples 2-5 had been cultured for 7 days, the islets were removed from the culture dish or RCCS bioreactor vessel and assessed for aggregation, apoptosis and ATP levels. […]

As to “CYS-SER-ARG-ALA-ARG-LYS-GLN-ALA-ALA-SER-ILE-LYS-VAL-ALA-VAL-SER-ALA-ASP-ARG (CSRARKQAASIKVAVSADR; laminin A chain) [PA22-2, 19 amino acid synthetic peptide containing residues 2091-2108 of the laminin A chain, IKVAV-containing]”, the aggregation inhibiting activity entry in the test with human pancreatic islets [1] (peptide added to RCCS-cultured islets, cell density about 200-300 islets/ml) was “showed substantial aggregation inhibiting activity”. Further, in the test on human pancreatic islets [1] (peptide left in the media during the entire culture period, petri dish), the “adherence of islets to petri dish” value is reported as “caused the petri dish control islets to adhere to the non-stick petri dishes”. The “degree of aggregation of islets” value in the test with human pancreatic islets [1] (preincubated 3 hours with 50 μg/ml peptide, then seven-day culture in RCCS bioreactor, compared with no peptide) is given as “lower degree of aggregation; also recorded: sufficient to prevent aggregation of the islets in the RCCS bioreactor; also recorded: beneficial in preventing islet aggregation”. In addition, the “caspase 3 activity” value in test [2] (Dish+ laminin: preincubated 3 hours with 50 μg/ml peptide, 7 days petri dish, vs Dish control (100%), n=4) is “slightly lower caspase 3 activity but the values did not have a p value less than 0.05; also recorded: no significant effect on islet caspase 3 activity”; in test [2] (RCCS+ laminin (Sample 5): preincubated 3 hours with 50 μg/ml peptide, 7 days RCCS, vs RCCS-cultured islets without peptide (Sample 4)) it was “less caspase 3 activity than the RCCS-cultured islets of Sample 4”; in test [2] (RCCS+ laminin: preincubated 3 hours with 50 μg/ml peptide, 7 days RCCS, vs Dish control, p<0.05, n=4) it was “significantly less caspase 3 activity than did the dish-cultured islets”. Also, the ATP levels entry with human pancreatic islets [3] (RCCS+laminin (Sample 5): preincubated with peptide, 7 days RCCS, vs Dish control (Sample 2), p<0.05, n=4) was “significantly higher ATP levels”; with human pancreatic islets [3] (Sample 3: preincubated 3 hours with 50 μg/ml peptide, 7 days petri dish, vs Dish control (100%), n=4) it was “tended to have higher ATP levels but the values did not have a p value less than 0.05”. In the test with human pancreatic islets [4], the “islet structure / membrane integrity (H & E thin sections)” value was “maintained their membrane integrity and appeared to be healthy and viable”.
